Measured values published in US10266497B2 (ABIDE THERAPEUTICS, INC., priority 2017, dated 2019).

What was measured:
MAGL [1] = molecular target: T1, MAGL (Homo sapiens, UniProt Q99685); assay: In vitro competitive activity-based protein profiling, MAGL, human; conditions: read-out: MAGL % inh. 1 μM (human)
T1 sequence (Q99685 1-303): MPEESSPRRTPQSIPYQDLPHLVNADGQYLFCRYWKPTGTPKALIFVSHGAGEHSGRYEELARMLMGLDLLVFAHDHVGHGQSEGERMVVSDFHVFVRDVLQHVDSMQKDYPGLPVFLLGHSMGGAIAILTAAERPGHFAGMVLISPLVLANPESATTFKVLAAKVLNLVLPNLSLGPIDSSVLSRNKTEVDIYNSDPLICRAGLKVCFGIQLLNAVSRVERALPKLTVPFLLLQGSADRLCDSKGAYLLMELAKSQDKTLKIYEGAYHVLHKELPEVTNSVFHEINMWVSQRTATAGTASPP

MAGL [2] = molecular target: T2, MAGL (Mus musculus, UniProt O35678); assay: In vitro competitive activity-based protein profiling, MAGL, mouse; conditions: read-out: MAGL % inh. 1 μM (mouse)
T2 sequence (O35678 1-303): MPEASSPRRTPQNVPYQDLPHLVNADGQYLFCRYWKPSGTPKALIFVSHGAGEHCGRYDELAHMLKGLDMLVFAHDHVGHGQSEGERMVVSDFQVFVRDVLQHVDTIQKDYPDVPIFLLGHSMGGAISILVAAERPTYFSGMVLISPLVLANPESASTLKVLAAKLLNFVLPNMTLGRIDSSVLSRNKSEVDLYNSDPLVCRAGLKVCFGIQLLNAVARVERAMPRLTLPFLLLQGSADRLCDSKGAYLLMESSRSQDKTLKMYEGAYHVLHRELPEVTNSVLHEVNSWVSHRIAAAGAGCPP
Method: (§1) Biological Evaluation In Vitro Competitive Activity-Based Protein Profiling.
(§2) Proteomes (mouse brain membrane fraction for mouse assays; human prefrontal cortex membrane fractions for human assays) (50 mL, 1.0 mg/mL total protein concentration) were preincubated with varying concentrations of inhibitors at 37° C. After 30 min, FP-Rh (1.0 mL, 50 mM in DMSO) was added and the mixture was incubated for another 30 min at 37° C. Reactions were quenched with SDS loading buffer (15 μL—4λ) and run on SDS-PAGE.

FAAH [3] = molecular target: T3, FAAH (Homo sapiens, UniProt O00519); assay: In vitro competitive activity-based protein profiling, FAAH, human; conditions: for inhibition at 1 µM: read-out: FAAH % inh. 1 μM (human)
T3 sequence (O00519 1-579): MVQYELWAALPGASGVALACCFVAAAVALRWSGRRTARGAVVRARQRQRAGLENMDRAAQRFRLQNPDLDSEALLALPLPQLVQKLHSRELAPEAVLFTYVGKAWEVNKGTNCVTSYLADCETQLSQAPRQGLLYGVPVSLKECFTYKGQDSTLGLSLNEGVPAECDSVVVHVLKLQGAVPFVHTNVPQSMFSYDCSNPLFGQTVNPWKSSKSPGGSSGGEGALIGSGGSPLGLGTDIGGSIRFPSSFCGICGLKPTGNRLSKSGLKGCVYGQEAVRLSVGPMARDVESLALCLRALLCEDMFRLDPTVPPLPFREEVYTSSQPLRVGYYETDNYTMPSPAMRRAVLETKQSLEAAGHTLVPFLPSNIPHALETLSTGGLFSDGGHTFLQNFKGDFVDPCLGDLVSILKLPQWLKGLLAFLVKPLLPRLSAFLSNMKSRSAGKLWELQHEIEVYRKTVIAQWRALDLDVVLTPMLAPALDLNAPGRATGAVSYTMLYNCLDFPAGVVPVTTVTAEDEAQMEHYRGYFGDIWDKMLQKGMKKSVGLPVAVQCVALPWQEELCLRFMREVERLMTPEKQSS
Method: as §1, §2

FAAH [4] = molecular target: T4, FAAH (Mus musculus, UniProt O08914); assay: In vitro competitive activity-based protein profiling, FAAH, mouse; conditions: read-out: FAAH % inh. 1 μM (mouse)
T4 sequence (O08914 1-579): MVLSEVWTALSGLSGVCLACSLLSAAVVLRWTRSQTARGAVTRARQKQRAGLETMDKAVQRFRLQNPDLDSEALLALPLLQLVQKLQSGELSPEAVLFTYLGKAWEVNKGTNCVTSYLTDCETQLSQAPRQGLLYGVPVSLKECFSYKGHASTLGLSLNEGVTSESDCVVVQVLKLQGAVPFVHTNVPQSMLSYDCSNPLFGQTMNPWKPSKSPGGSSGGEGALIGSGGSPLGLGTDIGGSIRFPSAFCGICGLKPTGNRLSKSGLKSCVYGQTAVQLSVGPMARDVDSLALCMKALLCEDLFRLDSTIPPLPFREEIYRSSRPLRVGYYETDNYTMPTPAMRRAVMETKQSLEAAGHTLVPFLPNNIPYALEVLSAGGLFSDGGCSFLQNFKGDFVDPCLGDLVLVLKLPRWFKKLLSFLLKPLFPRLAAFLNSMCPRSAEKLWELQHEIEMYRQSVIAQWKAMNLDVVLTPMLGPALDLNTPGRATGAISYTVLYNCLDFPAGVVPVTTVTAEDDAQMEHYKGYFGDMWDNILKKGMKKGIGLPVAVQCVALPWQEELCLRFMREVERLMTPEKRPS

MAGL [5] = molecular target: T2, MAGL; assay: Mouse brain proteomes from inhibitor treated mice (oral gavage, sacrificed 4 h after administration); type: in vivo; design: mouse brain membrane fraction for mouse assays; from tissue; host or cells: mouse brain (membrane fraction in vitro; brain proteomes of treated C57Bl/6J mice in vivo); conditions: 5 mg/kg oral gavage, brain proteome 4 h after administration, read-out: MAGL % inh. 5 mg/kg (mouse)
FAAH [6] = molecular target: T4, FAAH; assay: Mouse brain proteomes from inhibitor treated mice (oral gavage, sacrificed 4 h after administration), FAAH; type: in vivo; design: mouse brain membrane fraction for mouse assays; from tissue; host or cells: mouse brain (membrane fraction in vitro; brain proteomes of treated C57Bl/6J mice in vivo); conditions: 5 mg/kg oral gavage, brain proteome 4 h after administration, read-out: FAAH % inh. 5 mg/kg (mouse)

SMILES	inhibition at 1 µM (MAGL [1]) [%]	inhibition at 1 µM (MAGL [2]) [%]	inhibition at 1 µM (FAAH [3]) [%]	inhibition at 1 µM (FAAH [4]) [%]	inhibition at 5 mg/kg (MAGL [5]) [%]	inhibition at 5 mg/kg (FAAH [6]) [%]	IC50 (FAAH [3]) [nM]
O=C(O)c1ccn(C(=O)N2CCC3(CCCN3Cc3ccc(C(F)(F)F)cc3Cl)CC2)n1 [Example 76, 1-(1-(2-chloro-4-(trifluoromethyl)benzyl)-1,8-diazaspiro[4.5]decane-8-carbonyl)-1H-pyrazole-3-carboxylic acid]	> 75	> 75	0 to 25	0 to 25	0 to 25	0 to 25	–
O=C(O)c1ccn(C(=O)N2C[C@H]3C[C@H](OCc4ccc(Oc5ccc(Cl)cc5)cc4)C[C@H]3C2)n1 [Example 55, 1-(trans-5-((4-(4-chlorophenoxy)benzyl)oxy)octa-hydrocyclopenta[c]pyrrole-2-carbonyl)-1H-pyrazole-3-carboxylic acid]	> 75	> 75	> 75	> 75	0 to 25	0 to 25	–
O=C(O)c1ccn(C(=O)N2CCN(Cc3cccc(Oc4ccc(Cl)cc4)c3)CC2)n1 [Example 98, 1-(4-(3-(4-chlorophenoxy)benzyl)piperazine-1-carbonyl)-1H-pyrazole-3-carboxylic acid]	> 75	> 75	> 75	> 75	0 to 25	0 to 25	100 to 1000
CN(Cc1ccc(C(F)(F)F)cc1N1CCOCC1)C1(C)CCN(C(=O)n2ccc(C(=O)O)n2)CC1 [Example 4, 1-(4-Methyl-4-(methyl(2-morpholino-4-(trifluoromethyl)benzyl)amino)piperidine-1-carbonyl)-1H-pyrazole-3-carboxylic Acid]	> 75	> 75	0 to 25	0 to 25	0 to 25	0 to 25	–
O=C(O)c1ccn(C(=O)N2CCN(Cc3ccc(C(F)(F)F)cc3Cl)CC2)n1 [Example 91, 1-(4-(2-chloro-4-(trifluoromethyl)benzyl)piperazine-1-carbonyl)-1H-pyrazole-3-carboxylic acid]	> 75	> 75	0 to 25	0 to 25	0 to 25	0 to 25	–
O=C(O)c1ccn(C(=O)N2CCN(Cc3ccc(C(F)(F)F)cc3N3CCN4CCC[C@@H]4C3)CC2)n1 [Example 48, (R)-1-(4-(2-(hexahydropyrrolo [1,2-a]pyrazin-2(1H)-yl)-4-(trifluoromethyl)benzyl)piperazine-1-carbonyl)-1H-pyrazole-3-carboxylic acid]	> 75	> 75	0 to 25	0 to 25	0 to 25	0 to 25	–
COC1CCN(c2cc(C(F)(F)F)ccc2CN2CCN(C(=O)n3ccc(C(=O)O)n3)CC2)CC1 [Example 12, 1-(4-(2-(4-Methoxypiperidin-1-yl)-4-(trifluoromethyl)benzyl)piperazine-1-carbonyl)-1H-pyrazole-3-carboxylic Acid]	> 75	> 75	0 to 25	0 to 25	0 to 25	0 to 25	–
O=C(O)c1ccn(C(=O)N2CCN(Cc3ccc(C(F)(F)F)c(-c4nccs4)c3)CC2)n1 [Example 8, 1-(4-(3-(Thiazol-2-yl)-4-(trifluoromethyl)benzyl)piperazine-1-carbonyl)-1H-pyrazole-3-carboxylic Acid]	> 75	> 75	0 to 25	0 to 25	0 to 25	0 to 25	–

The next lines start with the values.

inhibition at 1 µM (MAGL [1]) [%]	inhibition at 1 µM (MAGL [2]) [%]	inhibition at 1 µM (FAAH [3]) [%]	inhibition at 1 µM (FAAH [4]) [%]	inhibition at 5 mg/kg (MAGL [5]) [%]	inhibition at 5 mg/kg (FAAH [6]) [%]	IC50 (FAAH [3]) [nM]	SMILES
> 75	> 75	0 to 25	0 to 25	0 to 25	0 to 25	–	Cc1cn(C(=O)N2CCC3(CC2)CN(Cc2ccc(C(F)(F)F)cc2N2CCCC2)C3)nc1C(=O)O [Example 135, 4-methyl-1-(2-(2-(pyrrolidin-1-yl)-4-(trifluoromethyl)benzyl)-2,7-diazaspiro[3.5]non-ane-7-carbonyl)-1H-pyrazole-3-carboxylic acid]
> 75	> 75	0 to 25	0 to 25	0 to 25	0 to 25	–	NC(=O)C1CCN(c2cc(C(F)(F)F)ccc2CN2CCN(C(=O)n3ccc(C(=O)O)n3)CC2)CC1 [Example 113, 1-(4-(2-(4-carbamoylpiperidin-1-yl)-4-(trifluoromethyl)benzyl)piperazine-1-carbonyl)-1H-pyrazole-3-carboxylic acid]
> 75	> 75	> 75	> 75	0 to 25	0 to 25	–	O=C(O)c1nn(C(=O)N2CCC3(CCCN3Cc3cc4ccc(C(F)(F)F)cc4s3)CC2)cc1Cl [Example 139, 4-chloro-1-(1-((6-(trifluoromethyl)benzo[b]thiophen-2-yl)methyl)-1,8-diazaspiro[4.5]decane-8-carbonyl)-1H-pyrazole-3-carboxylic acid]
> 75	> 75	0 to 25	0 to 25	0 to 25	0 to 25	1000 to 10000	O=C(O)c1ccn(C(=O)N2CCN(Cc3ccc(C(F)(F)F)cc3N3CCCCC3)CC2)n1 [Example 100, 1-(4-(2-(piperidin-1-yl)-4-(trifluoromethyl)benzyl)piperazine-1-carbonyl)-1H-pyrazole-3-carboxylic acid]
> 75	> 75	50 to 75	> 75	0 to 25	25 to 50	100 to 1000	O=C(O)c1ccn(C(=O)N2CC3CN(Cc4cc(Cl)cc(C(F)(F)F)c4)CC3C2)n1 (stereo not drawn) [Example 124, 1-(5-(3-chloro-5-(trifluoromethyl)benzyl)octahydro-pyrrolo[3,4-c]pyrrole-2-carbonyl)-1H-pyrazole-3-carboxylic acid]
